# In ChEMBL document CHEMBL1201862, “PubChem BioAssay data set” (2004):
#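 1) Cells in 96-well plates. 2) Compound, 48 h, 5 concentrations. 3) Linear interpolation between surrounding doses. 4) Unreached endpoint = highest concentration. Here, GI50 denotes the concentration required for 50% inhibition of growth.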 Calls of active or inactive are those of the source. Cut-off read from the data, not from the text of the source: active = GI50 up to about 1.1 µM and inactive = higher.
# How the values were obtained:
# Experiment in all cases: NCI tumour cell line growth inhibition, 48 h
# OVCAR-5 = test system: OVCAR-5
# KM12 = test system: KM12
# PC-3 = test system: PC-3
# SR = test system: SR
# HOP-62 = test system: HOP-62
# SF-268 = test system: SF-268
# COLO 205 = test system: COLO 205
# SK-OV-3 = test system: SK-OV-3
# RPMI-8226 = test system: RPMI-8226
# LOX IMVI = test system: LOX IMVI
# HT-29 = test system: HT-29
# HCC 2998 = test system: HCC 2998
# Hs-578T = test system: Hs-578T
# MCF7 = test system: MCF7
# A549 = test system: A549
# M14 = test system: M14
# OVCAR-8 = test system: OVCAR-8
# NCI-H522 = test system: NCI-H522
# OVCAR-4 = test system: OVCAR-4
# DU-145 = test system: DU-145
Structure (SMILES),GI50 (OVCAR-5),GI50 (KM12),GI50 (PC-3),GI50 (SR),GI50 (HOP-62),GI50 (SF-268),GI50 (COLO 205),GI50 (SK-OV-3),GI50 (RPMI-8226),GI50 (LOX IMVI),GI50 (HT-29),GI50 (HCC 2998),GI50 (Hs-578T),GI50 (MCF7),GI50 (A549),GI50 (M14),GI50 (OVCAR-8),GI50 (NCI-H522),GI50 (OVCAR-4),GI50 (DU-145)
CN1C(=O)C(=CNc2ccccc2[N+](=O)[O-])C(=O)N(C)C1=O,> 100 µM (inactive),> 100 µM (inactive),> 100 µM (inactive),> 100 µM (inactive),> 100 µM (inactive),> 100 µM (inactive),> 100 µM (inactive),> 100 µM (inactive),> 100 µM (inactive),> 100 µM (inactive),> 100 µM (inactive),> 100 µM (inactive),> 100 µM (inactive),10 µM (inactive),> 100 µM (inactive),> 100 µM (inactive),> 100 µM (inactive),> 100 µM (inactive),> 100 µM (inactive),–
CC(C)(C)OC(=O)[C@@H]1CCC(=S)N1Cc1ccccc1,> 100 µM (inactive),> 100 µM (inactive),> 100 µM (inactive),76.9 µM (inactive),–,–,> 100 µM (inactive),> 100 µM (inactive),> 100 µM (inactive),> 100 µM (inactive),–,> 100 µM (inactive),–,> 100 µM (inactive),> 100 µM (inactive),> 100 µM (inactive),> 100 µM (inactive),> 100 µM (inactive),> 100 µM (inactive),> 100 µM (inactive)
COc1cccc(/N=C/c2cc3cc(Br)ccc3nc2Cl)c1,> 50 µM (inactive),9.75 µM (inactive),8.67 µM (inactive),1.85 µM (inactive),41.4 µM (inactive),20.1 µM (inactive),> 50 µM (inactive),15.2 µM (inactive),2.96 µM (inactive),18.9 µM (inactive),27 µM (inactive),15 µM (inactive),40.6 µM (inactive),–,> 50 µM (inactive),> 50 µM (inactive),2.95 µM (inactive),8.43 µM (inactive),0.736 µM (active),48.8 µM (inactive)
COC(=O)CCCc1ccc2c(c1)CC1(Cc3ccccc3C1)C2,> 100 µM (inactive),> 100 µM (inactive),41.1 µM (inactive),–,> 100 µM (inactive),–,26.3 µM (inactive),> 100 µM (inactive),28.4 µM (inactive),40.3 µM (inactive),31 µM (inactive),70.1 µM (inactive),> 100 µM (inactive),53.6 µM (inactive),58.9 µM (inactive),44.4 µM (inactive),70.1 µM (inactive),47.6 µM (inactive),63 µM (inactive),–
O=C(N/N=C1\C(=O)Nc2c(Cl)cc(Cl)cc21)C(=O)Nc1cccc(C(F)(F)F)c1,> 100 µM (inactive),> 100 µM (inactive),> 100 µM (inactive),34.4 µM (inactive),> 100 µM (inactive),–,> 100 µM (inactive),> 100 µM (inactive),–,> 100 µM (inactive),> 100 µM (inactive),> 100 µM (inactive),> 100 µM (inactive),> 100 µM (inactive),> 100 µM (inactive),> 100 µM (inactive),> 100 µM (inactive),–,> 100 µM (inactive),–
Cn1c(=O)n2n(c1=O)C1C(=CC2)C2C=CC1n1c(=O)n(C)c(=O)n12 (configuration not stated),> 100 µM (inactive),> 100 µM (inactive),> 100 µM (inactive),–,> 100 µM (inactive),> 100 µM (inactive),> 100 µM (inactive),> 100 µM (inactive),> 100 µM (inactive),> 100 µM (inactive),> 100 µM (inactive),–,> 100 µM (inactive),–,> 100 µM (inactive),> 100 µM (inactive),> 100 µM (inactive),> 100 µM (inactive),–,> 100 µM (inactive)
O=C1CC2(c3ccccc3)ON=C(c3ccccc3)N2c2ccccc2N1 (configuration not stated),> 100 µM (inactive),74 µM (inactive),30.5 µM (inactive),35.6 µM (inactive),78.7 µM (inactive),50.5 µM (inactive),51.8 µM (inactive),19.7 µM (inactive),63.4 µM (inactive),66.4 µM (inactive),38.3 µM (inactive),65 µM (inactive),–,55.7 µM (inactive),–,60.4 µM (inactive),77.1 µM (inactive),41.6 µM (inactive),> 100 µM (inactive),61.5 µM (inactive)
COc1cc(NS(C)(=O)=O)ccc1Nc1ccnc2ccc3[nH]ccc3c12,16.6 µM (inactive),13.8 µM (inactive),13.1 µM (inactive),–,15.8 µM (inactive),11 µM (inactive),17 µM (inactive),–,15 µM (inactive),15.2 µM (inactive),16.8 µM (inactive),–,21.3 µM (inactive),15.6 µM (inactive),18.3 µM (inactive),16.4 µM (inactive),13.6 µM (inactive),5.6 µM (inactive),14.3 µM (inactive),14.4 µM (inactive)
CN(C)c1ccc(/C=C2\C[C@H]3[C@@H]4CCc5cc(OCCN6CCCC6)ccc5[C@H]4CC[C@]3(C)C2=O)cc1,2.03 µM (inactive),1.74 µM (inactive),1.78 µM (inactive),0.333 µM (active),–,–,1.52 µM (inactive),1.87 µM (inactive),1.75 µM (inactive),–,0.288 µM (active),1.53 µM (inactive),–,1.52 µM (inactive),1.5 µM (inactive),–,–,–,1.63 µM (inactive),1.89 µM (inactive)
CSc1nc2c(c(N(C)C)n1)C=Nn1c(nc3ccccc31)S2,> 100 µM (inactive),> 100 µM (inactive),> 100 µM (inactive),–,84.3 µM (inactive),60.4 µM (inactive),> 100 µM (inactive),> 100 µM (inactive),> 100 µM (inactive),76.2 µM (inactive),> 100 µM (inactive),70.5 µM (inactive),41.4 µM (inactive),–,69 µM (inactive),> 100 µM (inactive),74.3 µM (inactive),55.5 µM (inactive),81.8 µM (inactive),78 µM (inactive)
CN(C)CCCNC(=O)CCNC(=O)c1cc(NC(=O)c2cc(NC(=O)c3cc(NC(=O)CCCNC(=O)c4cc(NC(=O)c5cc(NC(=O)c6nccn6C)cn5C)cn4C)cn3C)cn2C)cn1C,> 100 µM (inactive),> 100 µM (inactive),> 100 µM (inactive),–,> 100 µM (inactive),> 100 µM (inactive),> 100 µM (inactive),> 100 µM (inactive),> 100 µM (inactive),> 100 µM (inactive),> 100 µM (inactive),> 100 µM (inactive),> 100 µM (inactive),> 100 µM (inactive),> 100 µM (inactive),> 100 µM (inactive),> 100 µM (inactive),> 100 µM (inactive),> 100 µM (inactive),–
O=C(c1ccc(Br)cc1)n1c2ccc(Br)cc2c2nc3ccccc3nc21,> 100 µM (inactive),> 100 µM (inactive),> 100 µM (inactive),83.2 µM (inactive),> 100 µM (inactive),> 100 µM (inactive),> 100 µM (inactive),–,> 100 µM (inactive),> 100 µM (inactive),> 100 µM (inactive),> 100 µM (inactive),–,> 100 µM (inactive),–,> 100 µM (inactive),> 100 µM (inactive),> 100 µM (inactive),> 100 µM (inactive),> 100 µM (inactive)
COc1ccc2c(c1)/C(=C\c1c(C)nc3n1CCS3)C(=O)N2,42.3 µM (inactive),6.34 µM (inactive),16.3 µM (inactive),9.14 µM (inactive),32.3 µM (inactive),–,9.42 µM (inactive),19.7 µM (inactive),34.5 µM (inactive),26.5 µM (inactive),12.6 µM (inactive),19.2 µM (inactive),–,27.6 µM (inactive),24.1 µM (inactive),23 µM (inactive),37 µM (inactive),–,–,39.1 µM (inactive)
c1ccc2nc3c(nc2c1)sc1ccccc13,60.1 µM (inactive),47.4 µM (inactive),–,41.2 µM (inactive),30.7 µM (inactive),20.7 µM (inactive),58.3 µM (inactive),13.2 µM (inactive),> 100 µM (inactive),19.3 µM (inactive),39.4 µM (inactive),32.9 µM (inactive),30.5 µM (inactive),26.5 µM (inactive),16.4 µM (inactive),> 100 µM (inactive),–,24.2 µM (inactive),17.5 µM (inactive),50 µM (inactive)
CCCCCCCCCCCCCCCCOCC(CC(F)(F)P(=O)(O)O)OC(C)=O (configuration not stated),> 50 µM (inactive),> 50 µM (inactive),> 50 µM (inactive),–,15.1 µM (inactive),> 50 µM (inactive),> 50 µM (inactive),> 50 µM (inactive),> 50 µM (inactive),–,> 50 µM (inactive),> 50 µM (inactive),–,> 50 µM (inactive),> 50 µM (inactive),> 50 µM (inactive),–,> 50 µM (inactive),–,> 50 µM (inactive)
CO[C@H]1C[C@H](O[C@H]2CC[C@]3(C=O)[C@H]4CC[C@]5(C)[C@@H](C6=CC(=O)OC6)CC[C@]5(O)[C@@H]4CC[C@]3(O)C2)O[C@H](C)[C@H]1O[C@@H]1O[C@H](CO)[C@@H](O)[C@H](O)[C@H]1O,3.52e-05 µM (active),9.1e-05 µM (active),2.06e-05 µM (active),> 0.01 µM (active),1.26e-05 µM (active),1.19e-05 µM (active),0.00011 µM (active),4.23e-05 µM (active),3.7e-05 µM (active),2.61e-05 µM (active),3.03e-05 µM (active),> 0.01 µM (active),> 0.01 µM (active),–,4.46e-06 µM (active),4.73e-05 µM (active),3.34e-05 µM (active),6.87e-06 µM (active),8.63e-06 µM (active),6.34e-06 µM (active)
